US20220305003A1, “METHODS OF TREATING CANCER WITH AN INHIBITOR OF ZNF827” (CHILDREN'S MEDICAL RESEARCH INSTITUTE, priority 2019, published 2022)

T1: ZNF827 ZnF1-9 deleted (Homo sapiens)
T1 chain: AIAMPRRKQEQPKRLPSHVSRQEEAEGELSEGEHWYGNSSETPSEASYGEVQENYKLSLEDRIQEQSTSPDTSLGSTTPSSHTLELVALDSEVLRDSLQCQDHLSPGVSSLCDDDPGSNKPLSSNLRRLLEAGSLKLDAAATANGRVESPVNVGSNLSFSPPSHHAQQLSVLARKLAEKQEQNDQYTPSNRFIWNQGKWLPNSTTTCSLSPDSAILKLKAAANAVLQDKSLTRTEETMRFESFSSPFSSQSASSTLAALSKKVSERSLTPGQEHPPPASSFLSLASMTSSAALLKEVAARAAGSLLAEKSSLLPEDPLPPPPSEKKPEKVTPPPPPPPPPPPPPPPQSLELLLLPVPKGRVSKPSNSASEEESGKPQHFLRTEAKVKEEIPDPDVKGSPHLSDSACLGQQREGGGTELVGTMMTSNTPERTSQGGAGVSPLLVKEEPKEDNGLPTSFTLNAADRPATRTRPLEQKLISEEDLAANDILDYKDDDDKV

T2: ZNF827 ZnF1-3 deleted (Homo sapiens, UniProt Q17R98 SEQ:4-997)
T2 chain: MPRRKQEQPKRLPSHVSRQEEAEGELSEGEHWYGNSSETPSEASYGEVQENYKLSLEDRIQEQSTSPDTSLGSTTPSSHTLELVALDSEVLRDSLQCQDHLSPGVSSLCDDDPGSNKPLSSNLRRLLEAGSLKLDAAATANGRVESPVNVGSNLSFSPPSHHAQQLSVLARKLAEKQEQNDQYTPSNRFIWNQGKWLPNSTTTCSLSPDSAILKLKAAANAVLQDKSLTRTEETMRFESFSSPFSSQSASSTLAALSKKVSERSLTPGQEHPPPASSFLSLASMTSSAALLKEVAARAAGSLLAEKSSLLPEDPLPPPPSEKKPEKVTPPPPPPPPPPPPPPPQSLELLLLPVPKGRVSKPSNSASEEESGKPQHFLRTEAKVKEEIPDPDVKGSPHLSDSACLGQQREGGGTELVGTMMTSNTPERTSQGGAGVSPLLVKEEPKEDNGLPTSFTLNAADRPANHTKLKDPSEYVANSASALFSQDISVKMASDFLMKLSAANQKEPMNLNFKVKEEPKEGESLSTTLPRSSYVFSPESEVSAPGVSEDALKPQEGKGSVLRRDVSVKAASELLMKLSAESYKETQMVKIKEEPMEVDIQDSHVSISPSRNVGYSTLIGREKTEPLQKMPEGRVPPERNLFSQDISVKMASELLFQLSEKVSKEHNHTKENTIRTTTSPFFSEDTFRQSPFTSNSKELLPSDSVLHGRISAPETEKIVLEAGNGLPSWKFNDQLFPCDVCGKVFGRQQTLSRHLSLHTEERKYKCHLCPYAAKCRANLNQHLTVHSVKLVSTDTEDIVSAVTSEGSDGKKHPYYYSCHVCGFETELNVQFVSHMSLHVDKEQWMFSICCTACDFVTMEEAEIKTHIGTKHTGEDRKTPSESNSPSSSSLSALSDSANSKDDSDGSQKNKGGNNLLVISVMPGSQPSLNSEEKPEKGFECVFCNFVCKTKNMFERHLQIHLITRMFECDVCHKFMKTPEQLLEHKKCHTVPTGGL


Legend:
[1] = system: U-2 OS cells; assay: Comet assay (tail moment); assay type: cell-based
Description: Comet assays were performed using the CometAssay® kit (Trevigen) according to the manufacturer's protocol with minor modifications. Briefly, cells were counted and resuspended in PBS. 20 μl of cells at 1×10^5/mL were combined with molten LMAgarose (Trevigen) at 37° C. The cell mixture was pipetted onto the sample area of a prewarmed slide (CometSlide™, Trevigen). Slides were cooled at 4° C. in the dark for 25 minutes, and then immersed in ice-cold lysis solution (CometAssay® kit, Trevigen) at 4° C. overnight. On the following day, slides were removed from lysis solution and gently immersed in ice-cold 1× neutral electrophoresis buffer ([…]) for 30 minutes. Slides were then electrophoresed in 1× neutral electrophoresis buffer ([…]) for 45 minutes at 1 V/cm. Following electrophoresis, slides were immersed in DNA precipitation solution (1 M ammonium acetate in 95% ethanol) for 30 minutes at room temperature. Slides were then transferred and immersed in 70% ethanol for 30 minutes at room temperature. Slides were then dried for 15 minutes at 37° C., incubated with 1 μM YOYO stain (Invitrogen) for 5 minutes, and Prolong Gold Antifade (Invitrogen) and stored at 4° C. until microscope analysis.

[2] = target: T1, ZNF827 ZnF1-9 deleted; assay: EMSA; interaction abolished; details: tags: HaloTag (pHTN), expressed in HEK 293T, tag removed by HaloTEV cleavage; label: 32P (gamma)
Description: (§1) Purified proteins were quantified using a BCA assay using the Pierce™ BCA Protein Assay Kit according to the manufacturer's instructions. Equal amounts of purified proteins were incubated in binding buffer (20 mM HEPES-KOH, pH7.9, 100 mM KCl, 0.8 mM ZnCl₂, 0.2 mM EDTA, 5% glycerol, 0.5 mM DTT and 0.5 mM PMSF) with 6.25 μg/mL poly (dI:dC) and 50 ng/μL BSA on ice for 20 minutes. ˜0.12 nM (˜2.5 fmol) γ-³²P labelled DNA oligonucleotide (see Table 3) probes were added to samples and incubated on ice for another 30 minutes. Binding reactions were loaded onto an 8% native acrylamide/bisacrylamide (19:1, Biorad) gel pre-run at 100V in 0.5× TB buffer (89 mM Tris, 89 mM boric acid) for 20 minutes. Gels were electrophoresed at 150 V for 150 minutes at 4° C., dried at 65° C. for 45 minutes, and then exposed to a Phosphor screen overnight. Gel images were obtained by scanning the screens with a Typhoon FLA9500 Imager (GE Life Sciences).

[3] = target: T2, ZNF827 ZnF1-3 deleted; assay: EMSA; interaction abolished; details: tags: HaloTag (pHTN), expressed in HEK 293T, tag removed by HaloTEV cleavage; label: 32P (gamma)
Description: as §1

Molecule | DNA damage measured as tail moment ([1]; 72 hr siRNA knockdown alone (DMSO)) | DNA damage measured as tail moment ([1]; 72 hr siRNA knockdown in conjunction with topotecan 2 μg/mL 24 hr) | binding result [2] | binding result [3]
siZNF827: Stealth RNAi siRNA ZNF827HSS135819 duplex oligoribonucleotides (Invitrogen), SEQ ID NO: 12 and 13 (chain 1 GGGCAGUCUUCUGGCUGAGAAAUCA; chain 2 UGAUUUCUCAGCCAGAAGACUGCCC; listed as RNA, further chemistry not given here) | caused DNA damage measured as tail moment to a similar extent as topotecan treatment | further increased the amount of DNA damage |  | 
TTAGGGTTAGGGTTAGGG (ssDNA) [ss telomeric G rich oligo] |  |  | no binding | no binding
